Assay results taken from the supplement of paper PMC10307832.

Assays:
Test in all cases: relative viability (nuclei count vs DMSO), 5 days (fraction); higher = more cells survive
Motesanib + Crizotinib = compound: CC1(C)CNc2cc(NC(=O)c3cccnc3NCc3ccncc3)ccc21 [Motesanib] + C[C@@H](Oc1cc(-c2cnn(C3CCNCC3)c2)cnc1N)c1c(Cl)ccc(F)c1Cl [Crizotinib] (partner 1 µM)
In short: (§1)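 Lung cancer cell lines were pin-tool dosed in 1536-well plates on the day after seeding, with either a lone drug or a fixed anchor-drug dose plus five library-drug doses (not always all listed) in √10 steps. Nuclei were counted on 4× images after 5 days. Relative viability is the ratio of treated-well to vehicle-well nuclei counts, with each value a median of duplicate plates.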

Motesanib + Linsitinib = compound: CC1(C)CNc2cc(NC(=O)c3cccnc3NCc3ccncc3)ccc21 [Motesanib] + C[C@]1(O)C[C@@H](c2nc(-c3ccc4ccc(-c5ccccc5)nc4c3)c3c(N)nccn32)C1 [Linsitinib] (partner 1 µM)
In short: as §1

[1] = compound: C[C@@]1(C(=O)Nc2ccc(F)nc2)CCCN1c1nc(Nc2cc(C3CC3)n[nH]2)c2cccn2n1 + CC(=O)c1c(C)c2cnc(Nc3ccc(N4CCNCC4)cn3)nc2n(C2CCCC2)c1=O [Palbociclib] (partner 0.5 µM)
In short: as §1

[2] = compound: C[C@@]1(C(=O)Nc2ccc(F)nc2)CCCN1c1nc(Nc2cc(C3CC3)n[nH]2)c2cccn2n1 + Nc1ncn([C@H]2C[C@H](O)[C@@H](CO)O2)c(=O)n1 [Decitabine] (partner 2 µM)
In short: as §1

Row | Cell Line | relative viability (Motesanib + Crizotinib; first compound 0.01 µM) | relative viability (Motesanib + Crizotinib; first compound 0.03162 µM) | relative viability (Motesanib + Crizotinib; first compound 0.1 µM) | relative viability (Motesanib + Crizotinib; first compound 0.3162 µM) | relative viability (Motesanib + Crizotinib; first compound 1 µM) | relative viability (Motesanib + Linsitinib; first compound 0.01 µM) | relative viability (Motesanib + Linsitinib; first compound 0.03162 µM) | relative viability (Motesanib + Linsitinib; first compound 0.1 µM) | relative viability (Motesanib + Linsitinib; first compound 0.3162 µM) | relative viability (Motesanib + Linsitinib; first compound 1 µM) | relative viability ([1]; first compound 0.04 µM) | relative viability ([1]; first compound 0.1265 µM) | relative viability ([1]; first compound 0.4 µM) | relative viability ([1]; first compound 1.265 µM) | relative viability ([2]; first compound 0.04 µM) | relative viability ([2]; first compound 0.1265 µM) | relative viability ([2]; first compound 0.4 µM) | relative viability ([2]; first compound 1.265 µM)
1 | HCC-15 | 0.778 | 0.782 | 0.799 | 0.835 | 0.838 | 0.928 | 0.801 | 0.922 | 0.992 | 0.926 | 0.667 | 0.579 | 0.529 | 0.598 | 0.48 | 0.375 | 0.43 | 0.311
2 | HCC-44 | 0.883 | 0.8 | 0.801 | 0.765 | 0.901 | 0.7 | 0.653 | 0.694 | 0.696 | 0.6 | 0.846 | 0.904 | 0.803 | 0.885 | 0.957 | 0.949 | 0.811 | 0.84
3 | HCC-78 | 0.378 | 0.352 | 0.37 | 0.326 | 0.384 | 0.498 | 0.481 | 0.541 | 0.705 | 0.584 | 0.446 | 0.377 | 0.464 | 0.363 | 0.624 | 0.564 | 0.587 | 0.394
4 | HCC-366 | 0.575 | 0.487 | 0.605 | 0.556 | 0.596 | 0.639 | 0.589 | 0.656 | 0.666 | 0.79 | 0.338 | 0.313 | 0.28 | 0.243 | 0.315 | 0.292 | 0.265 | 0.265
5 | HCC-827 | 0.99 | 0.985 | 0.998 | 0.955 | 0.93 | 0.983 | 0.916 | 1 | 1.05 | 0.951 | 0.418 | 0.466 | 0.48 | 0.459 | 0.295 | 0.312 | 0.351 | 0.305
6 | HOP-62 | 0.899 | 0.82 | 0.859 | 1.05 | 0.932 | 0.732 | 0.956 | 0.806 | 1.05 | 1.03 | 0.51 | 0.42 | 0.359 | 0.475 | 0.181 | 0.203 | 0.224 | 0.173
7 | IA-LM | 0.829 | 0.745 | 1.21 | 0.729 | 0.803 | 0.514 | 0.627 | 0.594 | 0.482 | 0.46 | – | – | – | – | – | – | – | –
8 | NCI-H522 | – | – | – | – | – | – | – | – | – | – | 0.935 | 0.874 | 0.779 | 0.889 | 0.616 | 0.607 | 0.591 | 0.639
9 | NCI-H596 | 0.937 | 0.884 | 0.958 | 1.12 | 1.05 | 1.1 | 0.937 | 1.08 | 1.12 | 1.08 | – | – | – | – | 1.08 | 0.977 | 0.96 | 0.912
10 | NCI-H1299 | 0.938 | 0.978 | 0.951 | 0.949 | 0.936 | 0.989 | 0.966 | 1.02 | 0.977 | 1.07 | – | – | – | – | – | – | – | –
11 | NCI-H1395 | – | – | – | – | – | 0.992 | 1.03 | 1 | 1.11 | 1.35 | 0.658 | 0.603 | 0.609 | 0.625 | 0.7 | 0.705 | 0.653 | 0.68
12 | NCI-H1563 | 0.867 | 0.855 | 0.906 | 0.804 | 0.914 | 1.26 | 1.19 | 1.21 | 1.14 | 1.21 | – | – | – | – | – | – | – | –
13 | NCI-H1648 | – | – | – | – | – | – | – | – | – | – | 0.257 | 0.246 | 0.269 | 0.259 | 0.465 | 0.464 | 0.416 | 0.361
14 | NCI-H1650 | 0.91 | – | 0.975 | 0.93 | 1.02 | – | – | – | – | – | 0.324 | 0.36 | 0.328 | 0.314 | 0.348 | 0.458 | 0.463 | 0.447
15 | NCI-H1703 | 0.826 | 0.545 | 0.303 | 0.155 | 0.172 | 0.814 | 0.656 | 0.497 | 0.306 | 0.162 | – | – | – | – | – | – | – | –
16 | NCI-H1793 | – | – | – | – | – | 0.877 | 0.802 | 0.796 | 0.793 | 0.76 | 0.367 | 0.294 | 0.225 | 0.289 | 0.362 | 0.428 | 0.429 | 0.429
17 | NCI-H2170 | 1.16 | 1.19 | 1.15 | 1.13 | 1.18 | – | – | – | – | – | 0.362 | 0.396 | 0.369 | 0.371 | 0.43 | 0.489 | 0.442 | 0.468
18 | NCI-H2228 | 0.386 | 0.424 | 0.619 | 0.431 | 0.571 | 0.685 | 0.544 | 0.689 | 0.5 | 0.509 | 0.694 | 0.425 | 0.463 | 0.498 | – | – | – | –
19 | NCI-H2342 | – | – | – | – | – | – | – | – | – | – | 0.505 | 0.598 | 0.47 | 0.48 | 0.685 | 0.636 | 0.559 | 0.671
20 | SW 900 | – | – | – | – | – | – | – | – | – | – | 0.614 | 0.497 | 0.588 | 0.547 | 0.403 | 0.437 | 0.351 | 0.349
